Here are results for 4 compounds from PMC9266449, “Dried Blood Spots as Matrix for Evaluation of Valproate Levels and the Immediate and Delayed Metabolomic Changes Induced by Single Valproate Dose Treatment” (International Journal of Molecular Sciences, 2022).

Read-outs that look alike come from different tables or passages of the source.

On the set-up of series [1]: method as in PMID 3146521. The note with it: female rats, 200 mg/kg oral gavage, cited from earlier work.
The conditions of series [2]: rats; cited from earlier work.
For series [3] the following is noted: human; cited from earlier work.
Series [4] in a line: Pharmacokinetics of VPA from DBS drug levels after intravenous bolus in rats. The series is classed as in vivo. To be noted: Sprague-Dawley, rat, dried blood spots (whole blood), iv bolus 200 mg/kg, mean ± SD; for AUC(0-t): read-out: Area under the curve (AUC0–8 h); for clearance: read-out: Clearance (CL) (converted); for half-life: read-out: HL Lambda Z (terminal elimination half-life) (converted); for MRT: read-out: Mean residence time (MRT); for Vd: read-out: Volume of distribution (Vd). How it is done:
Sprague-Dawley rats (7–8 weeks old, males: 10, females: 10) were obtained from the Comparative Medicine Center (CMC) of NUS. The rats were housed in a specific pathogen free animal facility (24 °C, 60% relative humidity) at CMC and kept on a 12-h light/dark cycle with free access to food and water. Twenty-four hours before the study, a polyethylene tubing (I.D. 0.58 mm, O.D. 0.965 mm, Becton Dickinson, Sparks, MD 21152, USA) was implanted into the right jugular vein under isoflurane anesthesia. This catheter was used for drug injection and blood sampling.
At 9 am on the study day, five rats from each gender were administered VPA intravenously at a dose of 200 mg/kg body weight (treatment group). The rest of the 5 rats from each gender were given sodium chloride 0.9% intravenously, as the placebo control group. Prior to VPA administration, blood samples (approximately 300 µL) from each of the 10 male rats and 10 female rats were collected and kept in an ice box until they were processed. After VPA/saline injection, blood samples were collected at 0.5, 2.5, 5, 8 and 24 h, respectively, from the 20 rats. The 6 time points were anticipated to capture the metabolite fluctuations in a day. Within 30 min of collection, the blood samples were spotted in duplicates of 25 µL onto Guthrie paper (UK Neonatal Screening Laboratories Network, Whatman 903®) and were left to dry in the fume hood for at least 3 h, the minimum time required for complete dryness. After drying, the DBS were punched, and the cores (6 mm) obtained were placed inside the respective Eppendorf tubes. All the acquired DBS were stored at −80 °C until processing for analysis. One DBS was used for metabolomic analysis and the other one was used for drug level quantification.
Extraction of VPA from DBS was carried out using 480 µL of acetonitrile and 20 µL of 1 N NaOH, vortexed for 1 min and followed by sonication for 5 min. The resulting extracts were centrifuged at 3500× g, 22 °C for 15 min [29, 30]. An amount of 400 µL of the supernatant were transferred into 15 mL Kimble centrifuge glass tubes for drying under a stream of nitrogen at 30 °C, followed by the removal of water using toluene and drying under nitrogen again. The dried sample was then derivatized using 50 µL MSTFA with 1% TMCS with incubation at 70 °C for an optimum period of 50 min. […] After vortexing for 1 min, 80 µL of the final volume was transferred into a 200 µL conical base inert glass insert, placed inside a 2 mL amber autosampler glass vial.
An assay for quantification of VPA concentrations in DBS was optimized in accordance to the International Conference of Harmonization (ICH) guideline. The settings were as follows: an injection temperature of 200 °C, ion source temperature of 220 °C, split ratio of 1:5, the starting temperature set at 90 °C for 0.2 min, with initial gradient ramp at 10 °C/min to 120 °C and held for 0.5 min. The temperature was then increased at 65 °C/min up to 285 °C and held for another 0.5 min. The temperature ramp was then reduced to 10 °C/min to reach a temperature of 291 °C and held for 0.2 min, before continuing at 60 °C/min to reach a final temperature of 300 °C, with a hold at 300 °C for 5 min. Selective ion monitoring (SIM) mode was applied for identifier ions with an m/z value of 201 and qualifying ions with m/z values of 145 and 129. A calibration curve was established with 6 concentrations, ranging from 0.5 µg/mL to 5 mg/mL.
Concentration-time profiles of VPA after intravenous bolus injection were fitted into a non-compartmental model (WinNonlin Professional, Version 5.1, Pharsight Corporation, Mountain View, CA, USA). The pharmacokinetic parameters obtained included the area under the DBS concentration versus time curve (AUC0–8 h), apparent volume of distribution (Vd) clearance (Cl), terminal elimination half-life (HL Lambda Z) and mean residence time (MRT) of VPA.

Details of series [5]: method as in PMID 390116. To be noted: whole blood concentrations, cited from earlier work.
On the set-up of series [6]: method as in PMID 390116. To be noted: mean ± standard error; cited from earlier work.
For series [7] the following is noted: source not stated; cited from earlier work.
The mark [8] stands for this setting: both sexes, all rats (male and female pooled).

As a reminder, the AUC is the area under the concentration-time curve, a measure of exposure. As usually defined, the clearance is the volume of plasma or blood freed of the substance per unit of time. One may read the half-life as the time needed for the level to fall by half in the phase considered. In general, MRT refers to a mean duration of stay, worked out from the concentration-time curve. As a reminder, the Vd is a proportionality between amount in the body and measured concentration, not a real space. With `CCCC(CCC)C(=O)O` [VPA, 2-propyl-pentanoic acid], in series [1] (plasma), the AUC was 1019 ± 769 µg·h/mL and the “Maximum concentration (Cmax) at 0.5 h” value was 341 ± 18 µg/mL. Besides, in series [1], the “t1/2 (plasma half-life)” value is given as 1.0 ± 0.2 h. The Protein bound in series [2] is reported as 64%. Besides, the Protein bound in series [3] is listed as 90%. In series [4] (female rats), the AUC(0-t) came to 363 ± 18.7 µg·h/mL, the clearance is 2 mL/min, the half-life is 2.01 ± 0.24 h and the MRT was found to be 1.46 ± 0.4 h. Besides, in series [4] (female rats), the Vd worked out at 0.21 ± 0.01 L. In addition, in series [4] (male rats), the AUC(0-t) amounted to 126 ± 39.2 µg·h/mL, the clearance was 8.5 mL/min, the half-life was 1.71 ± 0.18 h and the MRT worked out at 1.14 ± 0.28 h. In series [4] (male rats), the Vd came out at 0.82 ± 0.23 L. Moreover, in series [4] (setting [8]), the AUC(0-t) was 245 ± 133 µg·h/mL, the clearance was 5.33 mL/min, the half-life was 1.86 ± 0.26 h and the MRT came out at 1.3 ± 0.36 h. Also, in series [4] (setting [8]), the Vd was 0.51 ± 0.36 L. The t1/2 in series [5] (male rats, 150 mg/kg) is listed as 0.68 h. Moreover, in series [5] (rats dosed at 15 mg/kg), the CL is given as 0.525 ± 0.065 L/h and the Vd was 0.155 ± 0.025 L. The “Plasma/whole blood concentrations ratio” value in series [6] is 1.46 ± 0.03.
A word on the LogP: it is the decadic logarithm of the partition coefficient of the neutral form, usually between octanol and water. Take `C[C@H](N)C(=O)O` [Alanine]: the LogP in series [7] is given as -0.68.
For the compound `CC(C)CCC[C@@H](C)[C@H]1CC[C@H]2[C@@H]3CC=C4C[C@@H](O)CC[C@]4(C)[C@H]3CC[C@]12C` [Cholesterol], in series [7], the LogP is on record as 7.11.
In the case of `CCCCCCCCCCCCCCCC(=O)O` [Palmitic acid], in series [7], the LogP is recorded as 6.26.
